Counter-ions that a name gives are not always drawn. Like-named read-outs stand apart in the source and are kept apart here. Each block holds one compound with its values, some of them ahead of it.
Columns and labels:
[1] = molecular target: T1, BLM-RAD54 interaction (BLM F2 and N-RAD54 F1) (Homo sapiens, UniProt Q92698); assay: Renilla luciferase-based protein complementation assay (PCA); assay type: cell-based
T1 construct: expressed in transfected cells; host or cells: HEK293T
T1 sequence (Q92698 1-212): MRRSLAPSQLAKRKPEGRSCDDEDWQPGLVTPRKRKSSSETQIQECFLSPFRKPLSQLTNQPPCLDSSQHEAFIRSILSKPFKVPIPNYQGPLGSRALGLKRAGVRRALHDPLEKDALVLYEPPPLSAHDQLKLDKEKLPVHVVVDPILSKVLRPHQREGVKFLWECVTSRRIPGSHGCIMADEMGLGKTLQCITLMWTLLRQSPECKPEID
Description: Specifically, N-RAD54-F1, C-RAD54-F1, BLM-F1 and BLM-F2 were transfected in HEK293T. Forty-eight hours post-transfection, Renilla luciferase-based PCA were carried out with the indicated combination of the expressed proteins. The experiment was repeated three times. Mean±S.D.
Using the Renilla luciferase-based protein complementation assay described earlier, 1280 FDA/EMA approved small molecules present in Prestwick chemical library were screened for their ability to disrupt BLM-RAD54 interaction. Each of the small molecules was incubated with HEK293T cells expressing BLM-F2 and N-RAD54-F1. Compared to cells expressing only BLM-F2 and N-RAD54-F1, the decrease in Renilla luciferase intensity in presence of each small molecule was monitored. Percentage disruption of the interaction between BLM F2 and N-RAD54 F1 was plotted in form of heatmap. The disruption of the BLM-RAD54 interaction was determined by a decrease in the Renilla luciferase activity as compared to control untreated cells.
The percentage disruption of the interaction between BLM F2 and N-RAD54 F1 was plotted as a non-linear regression line. The data was from three independent experiments.
Renilla Luciferase (Rlu) based Protein complementation assay was carried out as described in (Stefan et al., 2007). For preliminary screening of the Prestwick Chemical Library (containing 1280 FDA/EMA approved small molecules), HEK293T cells were seeded in the 6-well plates a day prior to the transfection. Next day the cells were transfected by 2 μg each of pcDNA3.1 N-RAD54 F1, pcDNA3.1 C-RAD54 F1, pcDNA3.1 BLM F1, pcDNA3.1 BLM F2 plasmids (alone or in different combinations) using Lipofectamine 2000 (according to the manufacturer's protocol). 36 hours post-transfection, approximately […] cells were seeded in a 96-well plate and incubated at 37° C. for 2 hour with or without 10 μM of the 1280 small molecules present in the library. 10 μM of Coenleterazine h was added into each well and Rluc activity was monitored for the first 10 seconds in Varioskan Microplate Reader (Thermo Fisher Scientific). The validation screen was performed with 17 small molecules at 100 μM, 10 μM, 1 μM, 100 nM, 10 nM and 1 nM concentrations. The percentage reduction in the protein-protein interaction was then calculated as compared to the control wells (without any small molecule).

HCT116 WT cells = assay: MTT assay, chemotherapeutic drug gradient with or without disruptor; assay type: cell-based
Description: (§1) The three resistant lines and their wildtype counterpart HCT116 were exposed to a gradient of CPT, CDDP or 1-OHP.
(§2) Concentrations of CPT used: 0.140 nM, 20 nM, 50 nM, 1000 nM. Concentration of 1-OHP: 0.14 μM, 2 μM, 4 μM, 6 μM, 8 μM. Concentrations of CDDP used: 0.140 μM, 2 μM, 5 μM, 10 μM. The percentage of viable cells were determined by MTT assays (FIG. 12A-12C). The data in FIG. 12A and FIG. 12C is from three independent experiments and the data in FIG. 12B is from nine independent experiments. […] The levels of MRP2, MRP3, MRP5, MXR were quantitated from three independent experiments. […] Specifically, HCT116 IC60 CPTR cells were transfected with the HR substrate for 72 hours and the levels of HR was determined (FIG. 6A). The data is from three independent experiments. […] The number of soft agar colonies in each condition were counted. The data is from three independent experiments.
To generate camptothecin and cisplatin resistant cells (named as HCT116 IC60 CPT^R, HCT116 IC60 CDDP^R respectively), HCT116 wild type were seeded in a 10 cm dish to a confluency of 80%. The IC20 concentrations of cisplatin (3.38 μM) and camptothecin (12.6 nM) was added for 2 hours and 6 hours, respectively. Post treatment, the cells were washed twice with 1×PBS and fresh media was added. After every 48 hours, the media was changed and IC20 concentration of the drugs were added only if the confluency of cells was at least 80%. […] Resistant index was calculated using the following formula: Resistant index=IC60 of the resistant cells/IC60 of the parental cells.
Cells were seeded in a 96-well plate overnight. Next day, the culturing media was replaced with Optimem media, followed by incubation with BLM_CPP or SCM_CPP for 1 hr. The final concentrations of the peptides were 450 nM for cisplatin (CDDP) and 180 nM (for all other drugs). […] Post treatment, the cells were washed with 1×PBS and fresh media was added. After 72 hours, MTT assay was carried out to determine the percentage cell viability of the cells with respect to the untreated cells.

HCT116 IC60 CPTR cells = assay: MTT assay, CPT gradient with or without disruptor; assay type: cell-based; settings: Homo sapiens, HCT-116, CPT gradient alone, 72 hours, read-out: EC50 (μM), HCT116 WT CPT^R
Description: as §1, §2
To generate camptothecin and cisplatin resistant cells (named as HCT116 IC60 CPT^R, HCT116 IC60 CDDP^R respectively), HCT116 wild type were seeded in a 10 cm dish to a confluency of 80%. The IC20 concentrations of cisplatin (3.38 μM) and camptothecin (12.6 nM) was added for 2 hours and 6 hours, respectively. […] Resistant index was calculated using the following formula: Resistant index=IC60 of the resistant cells/IC60 of the parental cells. […]

[2] = molecular target: T2, RAD54 chromatin remodeling activity (Homo sapiens, UniProt Q92698); assay: Restriction enzyme accessibility (REA) assay on chromatinized G5E4 array; assay type: biochemical; settings: 180 nM peptide, +ATP
T2 construct: GST RAD54 (1-747) (WT), GST BLM (1-1417) (WT), His RAD54 (1-747) (WT); made in house; host or cells: E. coli BL-21 DE3
T2 sequence (Q92698 1-747): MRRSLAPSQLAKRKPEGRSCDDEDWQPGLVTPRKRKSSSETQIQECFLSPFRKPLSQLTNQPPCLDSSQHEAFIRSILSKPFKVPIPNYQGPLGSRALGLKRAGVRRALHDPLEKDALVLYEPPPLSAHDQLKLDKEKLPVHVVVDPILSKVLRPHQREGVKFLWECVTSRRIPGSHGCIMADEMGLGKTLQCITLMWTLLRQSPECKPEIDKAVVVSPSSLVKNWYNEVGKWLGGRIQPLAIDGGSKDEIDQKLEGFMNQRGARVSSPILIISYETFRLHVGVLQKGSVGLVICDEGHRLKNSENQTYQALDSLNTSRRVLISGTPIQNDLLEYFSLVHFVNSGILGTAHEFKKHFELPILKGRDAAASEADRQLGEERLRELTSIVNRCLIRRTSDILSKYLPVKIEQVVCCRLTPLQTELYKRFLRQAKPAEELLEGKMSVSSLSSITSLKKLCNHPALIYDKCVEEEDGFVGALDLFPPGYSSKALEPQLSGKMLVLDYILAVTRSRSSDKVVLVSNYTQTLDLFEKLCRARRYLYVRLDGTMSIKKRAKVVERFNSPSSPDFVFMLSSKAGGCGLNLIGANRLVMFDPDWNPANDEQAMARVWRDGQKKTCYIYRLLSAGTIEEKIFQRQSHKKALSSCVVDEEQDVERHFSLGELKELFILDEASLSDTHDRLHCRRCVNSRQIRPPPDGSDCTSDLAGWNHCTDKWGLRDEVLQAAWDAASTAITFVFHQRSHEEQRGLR
Source text: (§3) The data is from three independent experiments.
as §3

[3] = molecular target: T2, RAD54 chromatin remodeling activity; assay: REA assay on chromatinized MRP2 array; assay type: biochemical; settings: 180 nM peptide, +ATP
Source text: (§4) The data was from three independent experiments.
as §4, §3

RAD54 = molecular target: T3, RAD54 (Homo sapiens, UniProt Q92698); assay: ATP binding assay; assay type: biochemical; settings: 180 nM peptide
T3 construct: GST RAD54 (1-747) (WT); made in house; host or cells: E. coli BL-21 DE3
T3 sequence (Q92698 1-747): T2 sequence (Q92698 1-747)
Description: The quantitation of the ATP binding assay was carried out using RAD54 WT, RAD54 WT+BLM_peptide, and RAD54 WT+SCM_peptide. The data is from three independent experiments. Mean±S.D.
(§5) The presence of the disruptors also led to a decrease in the ATP binding to RAD54.
A 20 μl reaction was set up with 120 nM of GST-RAD54 and 180 nM of either BLM_peptide or SCM_peptide or BLM (1-212) using 4 μl of 5×ATP binding assay buffer (100 mM Tris-Cl pH 7.5, 50 mM MgCl2, 10 mM MnCl2, 5 mM DTT) and 5 μCi of [γ^32P]dATP. […] Reactions were incubated at 30° C. for 20 minutes and were stopped with 10% TCA and samples were spotted on P81 phosphocellulose paper followed by washing of paper strips with 75 mM orthophosphoric acid. A minimum of 8 washes were given in 20 hrs of 1 hr each including a 12 hr wash. Following this, strips were dehydrated in ethanol for 10 min followed by liquid scintillation counting. Reactions without the substrate were spotted as control and the same process repeated.

RAD54 ATPase activity = molecular target: T4, RAD54 ATPase activity (Homo sapiens, UniProt Q92698); assay: ATPase assay; assay type: biochemical; settings: peptide gradient 180 nM, 360 nM, 540 nM
T4 construct: made in house; host or cells: E. coli BL-21 DE3
T4 sequence (Q92698 1-747): T2 sequence (Q92698 1-747)
Description: The data is from three independent experiments. Mean±S.D.
as §5
Assay for RAD54 ATPase activity was carried out as per the previously published protocol (Srivastava et al., 2009). His-RAD54 (120 nM) was incubated with the GST-BLM (1-212) or BLM_peptide or SCM_peptide (180 nM). […] 1 μl of the sample was spotted on the polyethyleneimine-coated TLC plate, resolved in 1M Formic Acid and 0.3M LiCl. The products of ATP hydrolysis were then visualized by Phosphoimager scans taken in Typhoon™ laser-scanner platform (Cytiva) and quantitated using the inbuilt software.

His-RAD54 WT = molecular target: T5, His-RAD54 WT (Homo sapiens, UniProt Q92698); assay: Tryptophan fluorescence assay; assay type: binding; settings: increasing amount of peptide
T5 construct: made in house; host or cells: E. coli BL-21 DE3
T5 sequence (Q92698 1-747): T2 sequence (Q92698 1-747)
Description: To determine how BLM peptide affects ATP binding and hydrolysis, tryptophan fluorescence assays were carried out using full-length recombinant RAD54 in presence of either BLM_peptide or SCM_peptide (FIG. 2H). Tryptophan fluorescence assays were carried out with RAD54 WT alone or RAD54 WT in presence of the indicated concentrations of either BLM_peptide (upper panel) or SCM_peptide (lower panel). The experiment was repeated three times and one representative experiment has been shown.
RAD54 fluorescence was measured in a fluorometer.
Tryptophan fluorescence measurements were performed on a Fluoromax Spectrofluorimeter (Horiba-Jobin Yvon Fluoromax 4). Recombinant His-RAD54 (500 nM) was excited at 280 nm and the emission intensity monitored at regular intervals from 295 nm to at least 450 nm.

[4] = disruption of BLM F2 / N-RAD54 F1 interaction, HEK293T cells, 1 nM to 100 μM, read-out: EC50
[5] = HCT116, used to generate resistant cells

- EC50 [1, 4]: 16.7 ± 1.26 nM
Compound: COc1c2occc2c(OC)c2c(=O)cc(C)oc12 [C9, Khellin]

- EC50 [1, 4]: 6.75 ± 3.69 nM
Compound: Cc1cnc(C(=O)NCCc2ccc(S(=O)(=O)NC(=O)NC3CCCCC3)cc2)cn1 [C13, Glipizide]

- EC50 [1, 4]: 8.12 ± 3.89 nM
Compound: CC[C@H]1OC(=O)[C@H](C)[C@@H](O[C@H]2C[C@@](C)(OC)[C@@H](O)[C@H](C)O2)[C@H](C)[C@@H](O[C@@H]2O[C@H](C)C[C@H](N(C)C)[C@H]2O)[C@](C)(O)C[C@@H](C)C(=O)[C@H](C)[C@@H](O)[C@]1(C)O [C15, Erythromycin]

- EC50 [1, 4]: 26.4 ± 2.28 nM
Compound: Oc1c(Cl)cc(Cl)c2cccnc12 [C16, Chloroxine]

Second part, the compound before the results:

Compound: CC(C)CC1C(=O)N2CCC[C@H]2[C@]2(O)O[C@](NC(=O)[C@@H]3C=C4c5cccc6[nH]c(Br)c(c56)C[C@H]4N(C)C3)(C(C)C)C(=O)N12 (stereo partly drawn) [C12, Bromocryptine mesylate]
- EC50 [1]: 41.4 ± 4.46 nM

Compound: CC[C@@]1(O)C(=O)OCc2c1cc1n(c2=O)Cc2cc3ccccc3nc2-1 [CPT, camptothecin]
- IC40 concentration (HCT116 WT cells; [5]): 30.8 nM
- IC60 concentration (HCT116 WT cells; [5]): 92.6 nM
- EC50 (HCT116 WT cells; Homo sapiens, HCT-116, CPT gradient alone, MTT, 72 hours, read-out: EC50 (μM), HCT116 WT): 0.043 ± 0.0037 µM
- IC20 (HCT116 WT cells; Homo sapiens, HCT-116, HCT116 wild type, used to generate resistant cells, read-out: IC20 concentration): 12.6 nM
- EC50 (HCT116 IC60 CPTR cells): 0.354 ± 0.00561 µM

Compound: BLM_peptide: BLM (181-212) peptide, sequence STAQKSKKGKRNFFKAQLYTTNTVKTDLPPPS
- chromatin remodeling activity of RAD54, fraction uncut [2]: enhance the chromatin remodeling activity of RAD54, to the same extent as BLM (1-212)
- RAD54 mediated remodeling activity, fraction uncut [3]: enhanced RAD54 mediated remodeling activity on MRP2 substrate
- binding of ATP to RAD54 (RAD54): enhanced the binding of ATP to RAD54
- ATPase activity of RAD54 (RAD54 ATPase activity): increased the ATPase activity of RAD54
- tryptophan fluorescence of RAD54 (His-RAD54 WT): progressively enhanced fluorescence quenching
